Measured values: a melting point compilation (Tetko et al.; mined from patent text by program, amines drawn as free bases though some values may be those of a salt)

| Structure (SMILES) | melting point |
| --- | --- |
| CN(C)C(=O)Nc1cccc(Cl)c1 | 138 to 142 °C |
| OCC1OC(n2c(Cl)nc3cc(Br)c(Cl)cc32)C(O)C1O (centres undefined) | 140 to 142 °C |
| CS(=O)(=O)Nc1ccc(OCCN2CCN(C(=O)c3ccc(NS(C)(=O)=O)cc3)CC2)cc1 | 170 to 175 °C |
| COC(=O)C1=C(C)NC(C)=C(C(=O)OCCN(O)CCC(c2ccccc2)c2ccccc2)C1c1cccc([N+](=O)[O-])c1 (centres undefined) | 100 to 105 °C |
| CCCCOc1ccc(CCCCCCCCC(=O)O)cc1 | 45 to 48 °C |
| C[C@H]1CN(C(=O)OC(C)(C)C)S(=O)(=O)O1 | 123 to 125 °C |
| N#Cc1cnc2scc(Br)c2c1Br | 204 to 206 °C |
| CC(C)(C)OC(=O)N1CCn2c(c(C(N)=O)c(C#N)c2C2CCN(S(C)(=O)=O)CC2)C1 | 220 °C |
| CCOC(=O)C1=C(C)NC(C)=C(C(=O)OCC)C1c1ccccc1/C=C/C(=O)OC1CCCCC1 | 175 to 177 °C |
| C[C@@H](Nc1nc(Nc2cccc(NS(C)(=O)=O)c2)nc2[nH]ccc12)C(C)(C)C | 125 to 128 °C |
| N#Cc1ccc(-c2ccno2)cc1 | 148 to 149 °C |
| O=C(O)CCCCCNC(=O)c1cn2c3c(cccc13)CCC2 | 158 to 161 °C |
| c1nc(CSCCc2ccc3c(c2)OCO3)c[nH]1 | 81 to 83 °C |
| COc1ccc(Sc2ccc(NC(=N)N)cc2)cc1 | 140 to 141 °C |
| C[C@]1(COC(=O)N2CCCc3cc(Cl)ccc32)Cn2cc([N+](=O)[O-])nc2O1 | 172 to 174 °C |
| COc1cc(-c2cnc3[nH]cc(C(=O)NC4CCCOC4)c3n2)cc(OC)c1OC (centres undefined) | 191 to 192 °C |
| CCOC(=O)CCCC1Sc2ccccc2NC1=O (centres undefined) | 78 to 79 °C |
| CSCc1c(Cl)ccc(C(=O)c2cnoc2C2CC2)c1SC | 79.9 to 80.5 °C |
| Cc1ccc(S(=O)(=O)N2CCC[C@H]2C(=O)N[C@@H](Cc2ccc(OCCCN3CCN(C)CC3)cc2)C(=O)O)cc1 | 80 to 83 °C |
| CC(C)(C)c1cc(C(C)(C)C)cc(C(C)(C)CC(=O)OP2(=O)Oc3c(cc(C(C)(C)C)cc3C(C)(C)C)Cc3cc(C(C)(C)C)cc(C(C)(C)C)c3O2)c1 | 188 °C |
| CC(=O)c1cc(C(F)(F)F)cc(S(N)(=O)=O)c1 | 157 to 159 °C |
| COCOc1c(-c2ccc(C(=O)O)cc2)cccc1-c1ccc2c(c1)C(C)(C)CCC2(C)C | 74 °C |

| Structure (SMILES) | melting point |
| --- | --- |
| COc1cc(C(=O)OC2CC3C(=O)NC4(C(=O)NS(=O)(=O)C5CC5)CC4C=CCCCCCC(NC(=O)OC(C)(C)C)C(=O)N3C2)n(OC)n1 (centres undefined) | 149 to 151 °C |
| CC1OC(O)(Cl)CC(NC(=O)C(F)(F)F)C1(O)OC(=O)C(F)(F)F (centres undefined) | 132 to 134 °C |
| ON=C(CCN1CCN(c2ccccn2)CC1)c1ccc(F)cc1 | 159 to 160 °C |
| CC(C)NCC(O)COc1ccc(CCOC2CCCC2)cc1 (centres undefined) | 66 °C |
| O=C1N(Cc2ccc(Cl)s2)c2cccc(-c3ccoc3)c2C12COc1cc3c(cc12)OCO3 (centres undefined) | 166 to 168 °C |
| CCC1=C(C)C(=O)NC1C (centres undefined) | 83 °C |
| CCOC(=O)c1ccc(NCCCCCCCCCCC[Si](C)(C)C)cc1 | 66 to 68 °C |
| COc1cccc(C2(Cn3ccnc3)CC(CSc3ccc(C)cc3)ON2C)c1 (centres undefined) | 107 to 108 °C |
| O=C(O)c1snc(-c2ccc(Cl)c(Cl)c2)c1C(=O)O | 188 °C |
| O=C(c1ccc(OC23CC4CC(CC(C4)C2)C3)cc1)N1CCCC1 | 111 to 113 °C |
| CCCCOC(=O)c1cc(OC(=O)OC)c2c(c1)C(=O)c1cccc(OC(=O)OC)c1C2=O | 200 to 202 °C |
| Cc1ccc2sc(=O)[nH]c2c1 | 86 to 88 °C |
| CN(C)CCNC(=O)N1CCN(c2ccc(Cl)cc2)CC1 | 125 to 128 °C |
| O=[N+]([O-])c1cc(F)c(N2CCNCC2)cc1Cl | 91.5 °C |
| O=C(O)CN1C(=O)N(Cc2cccc([N+](=O)[O-])c2)C(=O)C1O (centres undefined) | 153 to 155 °C |
| COC(=O)c1ccc([N+](=O)[O-])c(OC(C)C)c1 | 46 to 48 °C |
| CN1CCN(c2cccc3c2C[C@H](NC(=O)c2ccc(C(=O)C(F)(F)F)cc2)CC3)CC1 | 91 to 93 °C |
| O=C(O)C(CCN1C(=O)c2ccccc2C1=O)Oc1ccc(-c2ccc(-c3c(Cc4ccccc4)oc4ccccc34)cc2)cc1 (centres undefined) | 182 to 184 °C |
| COc1ccc2c(c1)Sc1c(cc(OC)c(O)c1Br)N2C(=O)OC(C)OC(C)=O (centres undefined) | 162 to 164 °C |
| O=c1c(N2CCNCC2)nccn1CCOc1cccc([N+](=O)[O-])c1 | 171 °C |
| N[C@H]1CC[C@H](Nc2ccnc3cc(C(F)(F)F)ccc23)CC1 | 186 °C |

Continued, values first:

| melting point | Structure (SMILES) |
| --- | --- |
| 184 to 185 °C | CCN(CC)CC1CCCN(CCNC(=O)N2c3ccccc3C(=O)Nc3cccnc32)C1 (centres undefined) |
| 52 to 55 °C | Cc1ccc(CCCNCC(O)c2cccc(C(F)(F)F)c2)cc1 (centres undefined) |
| 162 to 164 °C | CONC(=O)C(C)c1ccc2cc(OCc3ccc4ccccc4n3)ccc2c1 (centres undefined) |
| 108 to 110 °C | CCN1C(=O)c2cccnc2N(CC)c2ccccc21 |
| 175 to 176 °C | COC(=O)c1cc2cnc(N3CCC[C@H]3CO)nc2n(Cc2ccc(OC)c(Cl)c2)c1=O |
| 217 to 218 °C | CCC(C)N(C(=O)c1ccccc1C(N)=O)c1ccc(Cn2nnn(-c3ccc(C(F)(F)F)cc3)c2=O)cc1C (centres undefined) |
| 114 to 117 °C | CCOC(=O)CSc1nc(Cl)c(C)c(NCc2ccc(Cl)cc2)n1 |
| 226 °C | CCOC(=O)/C=C/c1cc2c(Nc3ccc4[nH]ccc4c3)c(C#N)cnc2s1 |
| 131 °C | CCN(CC(=O)O)Cc1cc(/C(=N\O)c2cccc(Br)c2)ccc1[N+](=O)[O-] |
| 199 to 202 °C | COc1cccc(Cl)c1-c1cc2c(c3c1C(=O)NC3=O)c1cc(O)ccc1n2CCCN1C[C@@H](C)N[C@@H](C)C1 |
| 181 to 184 °C | CC(=O)CCc1nc2c(N)nc3ccccc3c2n1CC(C)(C)O |
| 184 to 185 °C | Cc1ccccc1CC(C(=O)Nc1nc2cc(Cl)ccc2o1)c1ccc(S(C)(=O)=O)cc1 (centres undefined) |
| 151 to 152 °C | COc1cc(C)c2c(c1OCC(=O)O)CC(C)(c1ccccc1)C2 (centres undefined) |
| 78 to 82 °C | Cc1cc(CN(C(=O)CCl)c2c(C)cccc2C)on1 |
| 167 to 168 °C | Cc1cc(-c2cc(F)c(F)cc2-c2ccc(S(C)(=O)=O)cc2)ccc1F |
| 249 to 250 °C | N#Cc1cnc2c(NC(=O)c3c(Cl)cccc3Cl)cccc2c1CO |
| 133 to 135 °C | Cc1nc2cc(Cl)ccc2c(=O)n1CCc1ccccc1 |
| 167 to 168 °C | Cc1cn(S(C)(=O)=O)c2c1C(=O)CC(c1ccccc1Cl)C2 (centres undefined) |
| 206 to 209 °C | O=C1OCc2c(-c3noc(C4CC4)n3)ncn2-c2ccccc21 |
| 30 to 32 °C | CC(=O)C(=[N+]=[N-])C(=O)CCc1ccccc1 |
| 135 to 137 °C | NCCC(=O)N(N)S(=O)(=O)c1ccccc1 |
| 129 to 130 °C | CC(=O)c1csc2ccc(OS(=O)(=O)c3ccccc3)cc12 |
| 196 to 198 °C | O=C(O)c1cccc(C[C@@H]2COc3ccc(OCc4ccccn4)cc3[C@@H]2O)c1 (relative stereo) |
| 204 to 206 °C | CCOCc1nc2c(N)nc3ccc(OCc4cccnc4)cc3c2n1CC(C)C |
| 147 to 149 °C | CN(C)c1ccc(C(=O)C(O)c2cccc(F)c2)cc1 (centres undefined) |
| 138 to 141 °C | COC(=O)Cc1cccc(CCC(CO)n2cnc(C(N)=O)c2)c1 (centres undefined) |
